Data reported in patent US10124008B2, “Use of inhibitors of acid sphingomyelinase to treat acquired and inherited retinal degenerations” (Wisconsin Alumni Research Foundation, priority 2014, dated 2018).

Key:
primary RPE monolayers [1] = assay: Lysosome exocytosis (surface LAMP2) after 10% normal human serum; format: cell-based, porcine; settings: RPE with A2E, complement attack; short treatment with desipramine
Method: Cells were rinsed in recording medium (HBSS with 4.5 g/L glucose, 20 mM HEPES) and incubated with ionomycin or […] normal human serum (Quidel) for 10 min at 37° C. Filters were immediately transferred to ice and analyzed for surface LAMP2 or β-hex activity (see below).
Cells were stained with mouse monoclonal antibody to the lumenal domain of Lamp2 (Serotec, MCA2558, 1:500) (48) or C5b-9 (Novus, NBP1-05120, 1:100) at 4° C. for 30 min. The antibody was diluted in PBS supplemented with Ca^2+ and Mg^2++1% BSA. Cells were then fixed with 2% PFA for 5 min on ice, permeabilized, and stained for ZO-1 as detailed above. Alexa-conjugated secondary antibodies (INVITROGEN) were used at 1:500 for 30 min. Cells were imaged by confocal microscopy (Andor Revolution XD) using a 60× 1.4 NA oil objective. For each set of experiments, the laser power, voltage and offset were identical for a given fluorophore. Quantification of Lamp2 staining was performed by obtaining the total fluorescence using the surface tool in Imaris (Bitplane).

ceramide in primary RPE = assay: Immunofluorescence staining for ceramide; format: cell-based, porcine; settings: desipramine treatment
Method: ALEXAFLUOR secondary antibodies were used at 1:500 and rhodamine-phalloidin (Cytoskeleton, PHDR1) at 1:200. Filters were mounted under coverslips on glass slides under VECTASHIELD (Vector labs), sealed and visualized with Andor Revolution XD spinning disk confocal microscope using a 60×1.4 NA oil objective with identical exposures and gains for each antibody. Acetylated tubulin-labeled stable microtubules (≥5 μm in length) after nocodazole treatment were analyzed manually in the Surpass mode of Imaris (Bitplane).

primary RPE monolayers [2] = assay: Reactive oxygen species assay (CELLROX) after 10% NHS; format: cell-based, porcine; settings: RPE with A2E, short treatment with desipramine
Method: Reactive oxygen species (ROS) generation was measured using […] Deep Red (Molecular Probes, #10422) according to manufacturer's recommendation. After 10% NHS treatment, medium containing NHS was removed and cells were rinsed with HBSS before incubation in 5 μM […] reagent at 37° C. for 30 min. Cells were rinsed 3 times with PBS and fluorescence was read with microplate reader at Ex/Em of 640/665. For normalization purposes, cells were fixed, stained with DAPI, and fluorescence was read at Ex/Em: 360/460.

[3] = system: EGFP-LC3-labeled autophagosomes in primary RPE; assay: Live imaging of EGFP-LC3 autophagosome trafficking (spinning disk, Boolean gating); format: cell-based, porcine; settings: desipramine 10 μM for 3 h
Method: RPE cells were transfected with EGFP-LC3 or tandem fluorescent mRFP-GFP-LC3 (Addgene) using the AMAXA NUCLEOFECTOR II (Lonza). Approximately 1.5 million cells and 5 μg of plasmid DNA were used for each transfection. Cells were plated either on serum-coated glass-bottom dishes (Mattek) or TRANSWELL filters at confluence. Live imaging of autophagosome traffic and autophagic flux were performed on the Revolution XD spinning disk microscopy system (Andor) equipped with the Yokogawa CSU-X1 confocal spinning disk head, Nikon Eclipse Ti inverted microscope surrounded by an Okolab cage incubator, iXon x3 897 EM-CCD camera, Andor laser combiner with four solid state lasers at 405, 488, 561, and 640 nm and corresponding band-pass filter sets (Sutter), and ASI motorized stage with piezo-Z for rapid Z-stack acquisition. Andor IQ2 software was used for image acquisition and Imaris x64 (Bitplane) for image analysis. For live imaging, cells were serum starved for 2 h to induce autophagy and rapid z-stacks were acquired using the 100×1.49 NA Apo TIRF objective (Nikon) for ˜50 frames at 37° C. Trafficking data was collected from three separate transfections for a total of at least 12-30 movies captured for treatment. During image acquisition care was taken to maintain the same laser power, exposure and electron-multiplying gain settings. Trafficking analysis was carried out using the Spots and Tracks modules of the Imaris software (Liu et al., 2010). After background subtraction (using the background subtraction algorithm and identical automatic threshold for all images) and smoothing (Gaussian algorithm with identical threshold settings for all images), Spots and Tracks algorithms were used to identify vesicles and follow them through time and cell-space to obtain total track length and track displacement. […] Data were analyzed using either a two-tailed t-test or one-way ANOVA followed by Bonferroni or Dunnett's post-tests (GraphPad PRISM). Unless otherwise stated, data are presented as Mean±S.E.M. of ≥3 independent experiments, with 3 to 4 replicates per condition per experiment. […] Regions were defined by: minimum or maximum track length, minimum or maximum displacement and a slope of 0.5 (displacement divided by length). Tracks with slope <0.5 were taken as less straight (region 2) than those with slope of >0.5 (region 3). Tracks within each region are represented as a percent of total number of tracks in Tables 1 and 2. One-way ANOVA or t-tests were used to compare regions between treatment groups. […] To examine the efficiency of autophagosome transport, Spots and Tracks algorithms in Imaris were used to calculate how far each autophagosome traveled (track displacement length) as a function of the movement required to travel that distance (total track length) (Liu et al., 2010).

MHC-II in RPE = assay: Quantification of MHC-II staining; format: cell-based; settings: RPE with A2E
[4] = percent of total EGFP-LC3 tracks, serum-starved RPE

## CNCCCN1c2ccccc2CCc2ccccc21 [desipramine]
Primary RPE monolayers [1]
  lysosome exocytosis: restored lysosome exocytosis
Ceramide in primary RPE
  ceramide levels: decreased ASMase activity and ceramide levels
Primary RPE monolayers [2]
  ROS levels after complement attack: decreased ROS levels after complement attack
Primary RPE monolayers [2]; listed as Desipramine
  ROS levels after complement attack: prevented mitochondrial oxidative damage after complement attack
[3]; RPE cells with A2E
  number of motile tracks and long-range displacement of autophagosomes: increased both the number of motile tracks and long-range displacement of autophagosomes
[3]; [4]
  Region 1 (R1) (D <2.5 μm, L <10 μm): 84.28%
  Region 3 (R3) (L >10 μm, Slope >0.5 μm): 7.93%
MHC-II in RPE
  MHC-II protein levels: decreased MHC-II protein levels
